Source: ChEMBL document CHEMBL6103569, “Discovery of novel fluorine-containing parthenolide analogues as potential antitumor agents” (Eur J Med Chem, 2025)
The source made the active and inactive calls. The rule behind the calls is not given here.

Key:
[1] = Antiproliferative activity against human NCI-H820 cells assessed as inhibition of cell growth incubated for 72 hrs by MTT assay; assay type: functional, cell-based
[2] = tested on: Huh-7; assay: Antiproliferative activity against human Huh-7 cells assessed as inhibition of cell growth incubated for 72 hrs by MTT assay; assay type: functional, cell-based
[3] = tested on: PANC-1; assay: Antiproliferative activity against human PANC-1 cells assessed as inhibition of cell growth incubated for 72 hrs by MTT assay; assay type: functional, cell-based
[4] = tested on: NCI-H820; assay: Inhibition of colony formation in human NCI-H820 cells incubated for 7 to 10 days by crystal violet staining based analysis; assay type: functional, cell-based; conditions: dose 0.2-5 µM, time 7-10 day
[5] = tested on: Huh-7; assay: Inhibition of colony formation in human Huh-7 cells incubated for 7 to 10 days by crystal violet staining based analysis; assay type: functional, cell-based; conditions: dose 0.2-5 µM, time 7-10 day
[6] = tested on: PANC-1; assay: Inhibition of colony formation in human PANC-1 cells incubated for 7 to 10 days by crystal violet staining based analysis; assay type: functional, cell-based; conditions: dose 0.2-5 µM, time 7-10 day
[7] = Induction of apoptosis in human NCI-H820 cells assessed as viable cells at 2 uM incubated for 48 hrs by Annexin V/FITC staining based flow cytometry analysis (reference value: 98%); assay type: functional; conditions: read-out: Activity
[8] = Induction of apoptosis in human NCI-H820 cells assessed as early apoptotic cells at 2 uM incubated for 48 hrs by Annexin V/FITC staining based flow cytometry analysis (reference value: 0.012%); assay type: functional
[9] = Induction of apoptosis in human NCI-H820 cells assessed as late apoptotic cells at 2 uM incubated for 48 hrs by Annexin V/FITC staining based flow cytometry analysis (reference value: 0.025%); assay type: functional
[10] = Induction of apoptosis in human NCI-H820 cells assessed as necrotic cells at 2 uM incubated for 48 hrs by Annexin V/FITC staining based flow cytometry analysis (reference value: 0.060%); assay type: functional
[11] = Induction of apoptosis in human NCI-H820 cells assessed as viable cells at 5 uM incubated for 48 hrs by Annexin V/FITC staining based flow cytometry analysis (reference value: 98%); assay type: functional; conditions: read-out: Activity
[12] = Induction of apoptosis in human NCI-H820 cells assessed as early apoptotic cells at 5 uM incubated for 48 hrs by Annexin V/FITC staining based flow cytometry analysis (reference value: 0.012%); assay type: functional
[13] = Induction of apoptosis in human NCI-H820 cells assessed as late apoptotic cells at 5 uM incubated for 48 hrs by Annexin V/FITC staining based flow cytometry analysis (reference value: 0.025%); assay type: functional
[14] = Induction of apoptosis in human NCI-H820 cells assessed as necrotic cells at 5 uM incubated for 48 hrs by Annexin V/FITC staining based flow cytometry analysis (reference value: 0.060%); assay type: functional
[15] = Induction of apoptosis in human NCI-H820 cells assessed as early apoptotic cells at 10 uM incubated for 48 hrs by Annexin V/FITC staining based flow cytometry analysis (reference value: 0.012%); assay type: functional
[16] = Induction of apoptosis in human NCI-H820 cells assessed as late apoptotic cells at 10 uM incubated for 48 hrs by Annexin V/FITC staining based flow cytometry analysis (reference value: 0.025%); assay type: functional
[17] = Induction of apoptosis in human NCI-H820 cells assessed as necrotic cells at 10 uM incubated for 48 hrs by Annexin V/FITC staining based flow cytometry analysis (reference value: 0.060%); assay type: functional
[18] = tested on: NCI-H820; assay: Inhibition of Ki67 expression in human NCI-H820 cells incubated for 48 hrs by Western blot analysis; assay type: functional, cell-based; conditions: dose <= 5.0 µM
[19] = tested on: NCI-H820; assay: Inhibition of Bcl-2 expression in human NCI-H820 cells incubated for 48 hrs by Western blot analysis; assay type: functional, cell-based; conditions: dose <= 5.0 µM
[20] = tested on: NCI-H820; assay: Inhibition of cell migration in human NCI-H820 cells assessed as decrease in migration rate incubated for 48 hrs by wound healing assay; assay type: functional, cell-based; conditions: dose <= 5.0 µM
[21] = tested on: NCI-H820; assay: Inhibition of cell migration in human NCI-H820 cells assessed as decrease in migration rate incubated for 48 hrs by transwell assay; assay type: functional, cell-based; conditions: dose <= 5.0 µM
[22] = tested on: NCI-H820; assay: Upregulation of E-cadherin level in human NCI-H820 cells upto 5 uM incubated for 48 hrs by Western blot analysis; assay type: functional, cell-based
[23] = tested on: NCI-H820; assay: Downregulation of Vimentin level in human NCI-H820 cells upto 5 uM incubated for 48 hrs by Western blot analysis; assay type: functional, cell-based
[24] = tested on: NCI-H820; assay: Downregulation of STAT3 level in human NCI-H820 cells incubated for 48 hrs by Western blot analysis; assay type: functional, cell-based; conditions: dose <= 5.0 µM
[25] = molecular target: Signal transducer and activator of transcription 3 (Homo sapiens) (UniProt P40763); assay: Inhibition of STAT3 phosphorylation in human NCI-H820 cells incubated for 48 hrs by Western blot analysis; assay type: cell-based; conditions: dose <= 5.0 µM
Sequence of Signal transducer and activator of transcription 3 (Homo sapiens) (P40763 whole entry): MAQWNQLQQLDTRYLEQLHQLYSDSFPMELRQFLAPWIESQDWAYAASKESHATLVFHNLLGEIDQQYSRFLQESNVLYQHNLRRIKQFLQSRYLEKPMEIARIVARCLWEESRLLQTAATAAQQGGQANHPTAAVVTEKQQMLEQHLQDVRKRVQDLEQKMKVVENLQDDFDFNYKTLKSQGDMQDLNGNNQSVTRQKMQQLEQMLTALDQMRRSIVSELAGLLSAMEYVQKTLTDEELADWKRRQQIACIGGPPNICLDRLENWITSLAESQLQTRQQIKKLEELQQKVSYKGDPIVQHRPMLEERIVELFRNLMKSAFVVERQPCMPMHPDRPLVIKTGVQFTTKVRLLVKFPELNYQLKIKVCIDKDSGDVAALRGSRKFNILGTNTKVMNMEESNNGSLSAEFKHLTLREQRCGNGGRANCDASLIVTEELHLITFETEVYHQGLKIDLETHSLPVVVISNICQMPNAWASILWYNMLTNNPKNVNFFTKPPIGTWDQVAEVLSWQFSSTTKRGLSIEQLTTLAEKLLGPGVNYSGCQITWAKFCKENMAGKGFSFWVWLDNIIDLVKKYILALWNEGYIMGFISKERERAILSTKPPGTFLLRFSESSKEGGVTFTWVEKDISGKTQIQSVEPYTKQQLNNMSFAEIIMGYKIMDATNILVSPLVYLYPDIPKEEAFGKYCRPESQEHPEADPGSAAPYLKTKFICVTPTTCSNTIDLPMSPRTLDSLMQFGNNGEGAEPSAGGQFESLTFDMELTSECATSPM

Compound C[C@@]12CC/C=C(/CC(F)(F)F)CC[C@H]3C(CN4CC[C@@H](O)C4)C(=O)O[C@@H]3[C@@H]1O2 (stereo not given in full) has an IC50 ([1]; Homo sapiens, NCI-H820, 72 h) of 4.62 µM, an IC50 ([2]; Homo sapiens, Huh-7, 72 h) of 3.34 µM and an IC50 ([3]; Homo sapiens, PANC-1, 72 h) of 4.88 µM.

With CN(C)CC1C(=O)O[C@H]2[C@H]1CC/C(CC(F)(F)F)=C\CC[C@@]1(C)O[C@@H]21 (stereo not given in full) [listing 1 of 2 here] the IC50 ([1]; nci-h820) was 4.38 µM, the IC50 ([2]; huh-7) was 3.08 µM and the IC50 ([3]; panc-1) was 4.38 µM.

C=C1C(=O)O[C@H]2[C@H]1CC/C(C=C(F)F)=C\CC[C@@]1(C)O[C@@H]21 showed an IC50 ([1]; Homo sapiens, NCI-H820, 72 h) of 9.9 µM, an IC50 ([2]; Homo sapiens, Huh-7, 72 h) of 7.52 µM and an IC50 ([3]; Homo sapiens, PANC-1, 72 h) of 14.2 µM.

C[C@@]12CC/C=C(/CC(F)(F)F)CC[C@H]3C(CN4CCCC4)C(=O)O[C@@H]3[C@@H]1O2 (stereo not given in full) gave an IC50 ([1]; Homo sapiens, NCI-H820, 72 h) of 6.65 µM, an IC50 ([2]; Homo sapiens, Huh-7, 72 h) of 3.57 µM and an IC50 ([3]; Homo sapiens, PANC-1, 72 h) of 5.68 µM.

For C[C@@]12CC/C=C(/CC(F)(F)F)CC[C@H]3C(CN4CCC[C@H]4CO)C(=O)O[C@@H]3[C@@H]1O2 (stereo not given in full), the IC50 ([1]; Homo sapiens, NCI-H820, 72 h) was 4.53 µM, the IC50 ([2]; Homo sapiens, Huh-7, 72 h) was 3.67 µM and the IC50 ([3]; Homo sapiens, PANC-1, 72 h) was 4.57 µM.

Compound C=C1C(=O)O[C@H]2[C@H]1CC/C(CO)=C\CC[C@@]1(C)O[C@@H]21 has an IC50 ([1]; Homo sapiens, NCI-H820, 72 h) of 13.3 µM, an IC50 ([2]; Homo sapiens, Huh-7, 72 h) of 10.1 µM and an IC50 ([3]; Homo sapiens, PANC-1, 72 h) of 15.6 µM.

In the case of CCCN(C)CC1C(=O)O[C@H]2[C@H]1CC/C(CC(F)(F)F)=C\CC[C@@]1(C)O[C@@H]21 (stereo not given in full), the IC50 ([1]; Homo sapiens, NCI-H820, 72 h) is reported as 5.52 µM, the IC50 ([2]; Homo sapiens, Huh-7, 72 h) is reported as 3.13 µM and the IC50 ([3]; Homo sapiens, PANC-1, 72 h) is reported as 3.62 µM.

CN(C)CC1C(=O)O[C@H]2[C@H]1CC/C(CC(F)(F)F)=C\CC[C@@]1(C)O[C@@H]21 (stereo not given in full) [listing 2 of 2 here] showed an IC50 ([1]; Homo sapiens, NCI-H820, 72 h) of 3.86 µM, an IC50 ([2]; Homo sapiens, Huh-7, 72 h) of 2.64 µM and an IC50 ([3]; Homo sapiens, PANC-1, 72 h) of 3.8 µM.

In the case of C=C1C(=O)O[C@H]2[C@H]1CC/C(CC(F)(F)F)=C\CC[C@@]1(C)O[C@@H]21, the IC50 ([1]; Homo sapiens, NCI-H820, 72 h) is reported as 2.66 µM, the IC50 ([2]; Homo sapiens, Huh-7, 72 h) is reported as 2.36 µM and the IC50 ([3]; Homo sapiens, PANC-1, 72 h) is reported as 2.16 µM. For the same compound, the inhibition [4] was “Active”, the inhibition [5] was “Active” and the inhibition [6] was “Active”. For the same compound, the viability at 2 µM [7] was 64%, the Activity [8] was 0.14% and the Activity [9] was 0.51%. The Activity [10] was 1.4%, the viability at 5 µM [11] was 86.8% and the Activity [12] was 2.77%. It also gave an Activity [13] of 6.54%, an Activity [14] of 2.07% and an Activity [15] of 0.06%. The Activity [16] was 5.24%, the Activity [17] was 0.55% and the inhibition [18] was “Dose-dependent-effect”. The inhibition [19] was “Dose-dependent-effect”, the inhibition [20] was “Dose-dependent-effect” and the inhibition [21] was “Dose-dependent-effect”. The Activity [22] was “Active”, the Activity [23] was “Active” and the Activity [24] was “Dose-dependent-effect”. The inhibition [25] was “Dose-dependent-effect”.

C[C@@]12CC/C=C(/CC(F)(F)F)CC[C@H]3C(CN4CCC[C@@H]4CO)C(=O)O[C@@H]3[C@@H]1O2 (stereo not given in full) gave an IC50 ([1]; Homo sapiens, NCI-H820, 72 h) of 3.11 µM, an IC50 ([2]; Homo sapiens, Huh-7, 72 h) of 3.29 µM and an IC50 ([3]; Homo sapiens, PANC-1, 72 h) of 3.66 µM.

C=C1C(=O)O[C@H]2[C@H]1CC/C(COC(F)F)=C\CC[C@@]1(C)O[C@@H]21 showed an IC50 ([1]; Homo sapiens, NCI-H820, 72 h) of 4.32 µM, an IC50 ([2]; Homo sapiens, Huh-7, 72 h) of 3.18 µM and an IC50 ([3]; Homo sapiens, PANC-1, 72 h) of 3.31 µM.
